Reference: the NIST ThermoML archive (doi:10.1016/j.jct.2009.01.014)
Where “and” joins values, the source holds several entries; their conditions need not be identical. Equal entries are not always repeated. ± gives the expanded uncertainty stated by the source.

Assay: molar heat capacity at constant pressure
Settings: 101.33 kPa, Vacuum adiabatic calorimetry

[Al+3].[Al+3].[Co+2].[O-2].[O-2].[O-2].[O-2] [aluminium cobalt oxide]
molar heat capacity at constant pressure (4.72 K, Crystal 2): 0.13 ± 0.08 J/K/mol
molar heat capacity at constant pressure (5 K, Crystal 2): 0.187 ± 0.11 J/K/mol
molar heat capacity at constant pressure (5.71 K, Crystal 2): 0.32 ± 0.19 J/K/mol
molar heat capacity at constant pressure (6 K, Crystal 2): 0.323 ± 0.19 J/K/mol
molar heat capacity at constant pressure (6.45 K, Crystal 2): 0.6 ± 0.36 J/K/mol
molar heat capacity at constant pressure (6.71 K, Crystal 2): 0.26 ± 0.16 J/K/mol
molar heat capacity at constant pressure (6.88 K, Crystal 2): 0.73 ± 0.44 J/K/mol
molar heat capacity at constant pressure (7 K, Crystal 2): 0.905 ± 0.54 J/K/mol
molar heat capacity at constant pressure (7.21 K, Crystal 2): 0.74 ± 0.61 J/K/mol
molar heat capacity at constant pressure (7.25 K, Crystal 2): 1.59 ± 1 J/K/mol
molar heat capacity at constant pressure (7.46 K, Crystal 2): 0.83 ± 0.5 J/K/mol
molar heat capacity at constant pressure (7.65 K, Crystal 2): 2.56 ± 3.5 J/K/mol
molar heat capacity at constant pressure (7.66 K, Crystal 2): 0.96 J/K/mol
molar heat capacity at constant pressure (7.81 K, Crystal 2): 1.14 ± 0.68 J/K/mol
molar heat capacity at constant pressure (7.85 K, Crystal 2): 0.98 ± 0.59 J/K/mol
molar heat capacity at constant pressure (7.94 K, Crystal 2): 1.38 ± 0.9 J/K/mol
molar heat capacity at constant pressure (8 K, Crystal 2): 3.8 ± 2.3 J/K/mol and 2.02 ± 1.2 J/K/mol
molar heat capacity at constant pressure (8.05 K, Crystal 2): 1.67 ± 1 J/K/mol
molar heat capacity at constant pressure (8.17 K, Crystal 2): 2 ± 1.2 J/K/mol
molar heat capacity at constant pressure (8.29 K, Crystal 2): 2.32 ± 1.4 J/K/mol
molar heat capacity at constant pressure (8.32 K, Crystal 2): 6.21 ± 4.5 J/K/mol
molar heat capacity at constant pressure (8.47 K, Crystal 2): 1.8 ± 1.1 J/K/mol
molar heat capacity at constant pressure (8.62 K, Crystal 2): 3.37 ± 2.1 J/K/mol
molar heat capacity at constant pressure (8.66 K, Crystal 2): 6.33 ± 3.8 J/K/mol
molar heat capacity at constant pressure (8.71 K, Crystal 2): 5.19 ± 3.1 J/K/mol and 7.23 ± 4.3 J/K/mol
molar heat capacity at constant pressure (8.98 K, Crystal 2): 3.72 ± 2.2 J/K/mol
molar heat capacity at constant pressure (9.28 K, Crystal 1): 4.54 ± 0.27 J/K/mol
molar heat capacity at constant pressure (9.32 K, Crystal 1): 4.26 ± 0.26 J/K/mol
molar heat capacity at constant pressure (9.33 K, Crystal 1): 3.86 ± 0.23 J/K/mol
molar heat capacity at constant pressure (9.95 K, Crystal 1): 4.26 ± 0.26 J/K/mol
molar heat capacity at constant pressure (10 K, Crystal 1): 4.27 ± 0.26 J/K/mol
molar heat capacity at constant pressure (10.45 K, Crystal 1): 4.03 ± 0.24 J/K/mol
molar heat capacity at constant pressure (10.5 K, Crystal 1): 4.18 ± 0.25 J/K/mol
molar heat capacity at constant pressure (10.76 K, Crystal 1): 4.31 ± 0.26 J/K/mol
molar heat capacity at constant pressure (11.38 K, Crystal 1): 4.5 ± 0.27 J/K/mol
molar heat capacity at constant pressure (11.87 K, Crystal 1): 4.28 ± 0.26 J/K/mol
molar heat capacity at constant pressure (12.04 K, Crystal 1): 4.33 ± 0.26 J/K/mol
molar heat capacity at constant pressure (12.41 K, Crystal 1): 4.39 ± 0.27 J/K/mol
molar heat capacity at constant pressure (12.96 K, Crystal 1): 4.32 ± 0.26 J/K/mol
molar heat capacity at constant pressure (13.36 K, Crystal 1): 4.4 ± 0.27 J/K/mol
molar heat capacity at constant pressure (13.69 K, Crystal 1): 4.41 ± 0.27 J/K/mol
molar heat capacity at constant pressure (13.73 K, Crystal 1): 4.37 ± 0.26 J/K/mol
molar heat capacity at constant pressure (14.57 K, Crystal 1): 4.32 ± 0.26 J/K/mol
molar heat capacity at constant pressure (14.84 K, Crystal 1): 4.36 ± 0.26 J/K/mol
molar heat capacity at constant pressure (15 K, Crystal 1): 4.19 ± 0.25 J/K/mol
molar heat capacity at constant pressure (15.02 K, Crystal 1): 4.19 ± 0.25 J/K/mol
molar heat capacity at constant pressure (15.35 K, Crystal 1): 4.45 ± 0.27 J/K/mol
molar heat capacity at constant pressure (16.08 K, Crystal 1): 4.3 ± 0.26 J/K/mol
molar heat capacity at constant pressure (16.27 K, Crystal 1): 4.22 ± 0.25 J/K/mol
molar heat capacity at constant pressure (16.99 K, Crystal 1): 4.37 ± 0.26 J/K/mol
molar heat capacity at constant pressure (17.59 K, Crystal 1): 4.22 ± 0.25 J/K/mol
molar heat capacity at constant pressure (17.64 K, Crystal 1): 4.2 ± 0.25 J/K/mol
molar heat capacity at constant pressure (18.61 K, Crystal 1): 4.3 ± 0.26 J/K/mol
molar heat capacity at constant pressure (18.8 K, Crystal 1): 4.15 ± 0.25 J/K/mol
molar heat capacity at constant pressure (19.9 K, Crystal 1): 4.28 ± 0.26 J/K/mol
molar heat capacity at constant pressure (20 K, Crystal 1): 4.12 ± 0.25 J/K/mol
molar heat capacity at constant pressure (20.2 K, Crystal 1): 4.24 ± 0.26 J/K/mol
molar heat capacity at constant pressure (20.34 K, Crystal 1): 4.12 ± 0.25 J/K/mol
molar heat capacity at constant pressure (20.92 K, Crystal 1): 4.12 ± 0.25 J/K/mol
molar heat capacity at constant pressure (21.76 K, Crystal 1): 4.2 ± 0.25 J/K/mol
molar heat capacity at constant pressure (21.88 K, Crystal 1): 4.24 ± 0.26 J/K/mol
molar heat capacity at constant pressure (22.65 K, Crystal 1): 4.13 ± 0.25 J/K/mol
molar heat capacity at constant pressure (23.29 K, Crystal 1): 4.19 ± 0.25 J/K/mol
molar heat capacity at constant pressure (24.79 K, Crystal 1): 4.18 ± 0.25 J/K/mol
molar heat capacity at constant pressure (24.8 K, Crystal 1): 4.22 ± 0.25 J/K/mol
molar heat capacity at constant pressure (25 K, Crystal 1): 4.19 ± 0.25 J/K/mol
molar heat capacity at constant pressure (26.22 K, Crystal 1): 4.35 ± 0.26 J/K/mol
molar heat capacity at constant pressure (26.96 K, Crystal 1): 4.24 ± 0.26 J/K/mol
molar heat capacity at constant pressure (27.5 K, Crystal 1): 4.17 ± 0.25 J/K/mol
molar heat capacity at constant pressure (28.68 K, Crystal 1): 4.27 ± 0.26 J/K/mol
molar heat capacity at constant pressure (29.17 K, Crystal 1): 4.26 ± 0.26 J/K/mol
molar heat capacity at constant pressure (29.76 K, Crystal 1): 4.34 ± 0.26 J/K/mol
molar heat capacity at constant pressure (30 K, Crystal 1): 4.35 ± 0.26 J/K/mol
molar heat capacity at constant pressure (31.39 K, Crystal 1): 4.52 ± 0.1 J/K/mol
molar heat capacity at constant pressure (31.42 K, Crystal 1): 4.55 ± 0.1 J/K/mol
molar heat capacity at constant pressure (33.59 K, Crystal 1): 4.79 ± 0.1 J/K/mol
molar heat capacity at constant pressure (34.14 K, Crystal 1): 4.77 ± 0.1 J/K/mol
molar heat capacity at constant pressure (35 K, Crystal 1): 4.98 ± 0.11 J/K/mol
molar heat capacity at constant pressure (35.82 K, Crystal 1): 5.1 ± 0.11 J/K/mol
molar heat capacity at constant pressure (36.43 K, Crystal 1): 5.08 ± 0.11 J/K/mol
molar heat capacity at constant pressure (38.1 K, Crystal 1): 5.31 ± 0.11 J/K/mol
molar heat capacity at constant pressure (38.48 K, Crystal 1): 5.3 ± 0.11 J/K/mol
molar heat capacity at constant pressure (40 K, Crystal 1): 5.71 ± 0.12 J/K/mol
molar heat capacity at constant pressure (40.31 K, Crystal 1): 5.7 ± 0.12 J/K/mol
molar heat capacity at constant pressure (40.44 K, Crystal 1): 5.8 ± 0.12 J/K/mol
molar heat capacity at constant pressure (42.02 K, Crystal 1): 6.02 ± 0.13 J/K/mol
molar heat capacity at constant pressure (42.79 K, Crystal 1): 6.32 ± 0.13 J/K/mol
molar heat capacity at constant pressure (43.71 K, Crystal 1): 6.48 ± 0.14 J/K/mol
molar heat capacity at constant pressure (45 K, Crystal 1): 6.87 ± 0.14 J/K/mol
molar heat capacity at constant pressure (45.17 K, Crystal 1): 6.92 ± 0.14 J/K/mol
molar heat capacity at constant pressure (45.43 K, Crystal 1): 6.93 ± 0.14 J/K/mol
